# Results published in ChEMBL document CHEMBL1914337, “Synthesis and biological evaluation of 2-indolinone derivatives as potential antitumor agents” (Eur J Med Chem, 2011).
# The source made the active and inactive calls. The calls are words filed in the database; no cut-off is given here.
# Columns and labels:
# HepG2 = assay: cells; settings: Homo sapiens, HepG2, 48 h
# Description: Cytotoxicity against human HepG2 cells after 48 hrs by MTT assay
# HCT-116 [1] = assay: cells; settings: Homo sapiens, HCT-116, 48 h
# Description: Cytotoxicity against human HCT116 cells after 48 hrs by MTT assay
# A549 = assay: cells; settings: Homo sapiens, A549, 48 h
# Description: Cytotoxicity against human A549 cells after 48 hrs by MTT assay
# HL-60 = assay: cells; settings: Homo sapiens, HL-60, 48 h
# Description: Cytotoxicity against human HL60 cells after 48 hrs by MTT assay
# K562 = assay: cells; settings: Homo sapiens, K562, 48 h
# Description: Cytotoxicity against human K562 cells after 48 hrs by MTT assay
# [2] = Cytotoxicity against human QSG7701 cells after 48 hrs by MTT assay; type: cell-based; settings: QSG7701, 48 h
# PC-3 = assay: Cytotoxicity against human PC3 cells after 48 hrs by MTT assay; type: functional, cell-based; settings: PC-3, 48 h
# [3] = target: T1, Vascular endothelial growth factor receptor 2 (Homo sapiens, UniProt P35968); assay: Inhibition of human VEGFR2 preincubated for 10 mins before ATP addition measured after 45 mins
# T1 sequence (P35968 whole entry): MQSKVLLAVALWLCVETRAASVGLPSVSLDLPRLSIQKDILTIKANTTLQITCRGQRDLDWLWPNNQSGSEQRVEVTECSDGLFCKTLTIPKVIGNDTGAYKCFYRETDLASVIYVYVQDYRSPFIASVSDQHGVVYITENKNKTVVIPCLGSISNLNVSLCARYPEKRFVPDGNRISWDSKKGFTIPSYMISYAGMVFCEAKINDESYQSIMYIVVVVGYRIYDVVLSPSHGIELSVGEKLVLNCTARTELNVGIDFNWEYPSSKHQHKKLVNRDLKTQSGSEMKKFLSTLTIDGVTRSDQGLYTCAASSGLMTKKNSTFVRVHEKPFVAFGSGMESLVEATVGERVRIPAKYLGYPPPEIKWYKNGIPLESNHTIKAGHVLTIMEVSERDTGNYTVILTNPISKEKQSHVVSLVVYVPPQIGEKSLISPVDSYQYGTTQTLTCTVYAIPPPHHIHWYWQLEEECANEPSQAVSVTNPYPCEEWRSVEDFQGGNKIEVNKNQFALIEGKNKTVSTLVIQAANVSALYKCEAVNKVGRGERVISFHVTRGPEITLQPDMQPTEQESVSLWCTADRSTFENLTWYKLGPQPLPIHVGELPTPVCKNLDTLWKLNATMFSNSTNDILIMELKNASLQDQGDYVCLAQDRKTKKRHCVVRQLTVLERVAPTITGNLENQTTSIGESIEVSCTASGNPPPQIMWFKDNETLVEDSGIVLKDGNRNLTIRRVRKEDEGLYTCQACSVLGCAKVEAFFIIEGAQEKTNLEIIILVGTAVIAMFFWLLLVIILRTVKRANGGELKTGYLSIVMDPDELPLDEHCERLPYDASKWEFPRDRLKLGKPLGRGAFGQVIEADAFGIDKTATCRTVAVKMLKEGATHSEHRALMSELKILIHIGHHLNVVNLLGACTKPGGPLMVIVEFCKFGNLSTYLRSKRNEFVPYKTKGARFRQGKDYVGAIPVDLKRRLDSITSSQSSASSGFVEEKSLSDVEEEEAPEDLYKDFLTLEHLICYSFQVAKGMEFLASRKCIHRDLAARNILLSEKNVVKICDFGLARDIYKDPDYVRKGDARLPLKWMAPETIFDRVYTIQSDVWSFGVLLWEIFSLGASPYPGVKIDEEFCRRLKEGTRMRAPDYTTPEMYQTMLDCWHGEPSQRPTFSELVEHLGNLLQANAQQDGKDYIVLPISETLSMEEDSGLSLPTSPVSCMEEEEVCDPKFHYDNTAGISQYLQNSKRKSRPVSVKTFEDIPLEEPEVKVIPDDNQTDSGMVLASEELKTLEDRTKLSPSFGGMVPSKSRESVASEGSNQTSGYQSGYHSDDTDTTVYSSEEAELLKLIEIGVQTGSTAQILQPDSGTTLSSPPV
# [4] = target: T1, Vascular endothelial growth factor receptor 2; assay: Inhibition of VEGF-induced VEGFR2 phosphorylation in human HCT116 cells at 0.2 to 20 uM treated 30 mins before VEGF challenge measured after 2 hrs by immuno blot analysis; type: cell-based; settings: HCT-116
# HCT-116 [5] = assay: Cell cycle arrest in human HCT116 cells assessed as accumulation at G2 phase at 0.5 uM after 48 hrs using propidium iodide by flow cytometry (reference value: 16.77%); type: functional
# HCT-116 [6] = assay: Induction of apoptosis in human HCT116 cells at 0.5 uM after 48 hrs using annexin V/propidium iodide staining by flow cytometry (reference value: 4.17%); type: functional
# HCT-116 [7] = assay: Induction of apoptosis in human HCT116 cells assessed as increase in late apoptotic cells after 48 hrs using annexin V/propidium iodide staining by flow cytometry; type: functional, cell-based
# HCT-116 [8] = assay: Induction of apoptosis in human HCT116 cells at 8 uM after 48 hrs using annexin V/propidium iodide staining by flow cytometry (reference value: 4.17%); type: functional
# HCT-116 [9] = assay: Cell cycle arrest in human HCT116 cells assessed as accumulation at G1 phase after 48 hrs using propidium iodide by flow cytometry; type: functional, cell-based
# HCT-116 [10] = assay: Cell cycle arrest in human HCT116 cells assessed as accumulation at G1 phase at 2 uM after 48 hrs using propidium iodide by flow cytometry (reference value: 36.8%); type: functional
# HCT-116 [11] = assay: Cell cycle arrest in human HCT116 cells assessed as accumulation at S phase at 0.5 uM after 48 hrs using propidium iodide by flow cytometry (reference value: 46.43%); type: functional
# HCT-116 [12] = assay: Cell cycle arrest in human HCT116 cells assessed as accumulation at S phase at 8 uM after 48 hrs using propidium iodide by flow cytometry (reference value: 46.43%); type: functional
# HCT-116 [13] = assay: Cell cycle arrest in human HCT116 cells assessed as accumulation at G2 phase at 2 uM after 48 hrs using propidium iodide by flow cytometry (reference value: 16.77%); type: functional
# HCT-116 [14] = assay: Cell cycle arrest in human HCT116 cells assessed as accumulation at G2 phase at 8 uM after 48 hrs using propidium iodide by flow cytometry (reference value: 16.77%); type: functional
# HCT-116 [15] = assay: Cell cycle arrest in human HCT116 cells assessed as accumulation at S phase at 2 uM after 48 hrs using propidium iodide by flow cytometry (reference value: 46.43%); type: functional
# HCT-116 [16] = assay: Cell cycle arrest in human HCT116 cells assessed as accumulation at G1 phase at 0.5 uM after 48 hrs using propidium iodide by flow cytometry (reference value: 36.8%); type: functional
# HCT-116 [17] = assay: Cell cycle arrest in human HCT116 cells assessed as accumulation at G1 phase at 8 uM after 48 hrs using propidium iodide by flow cytometry (reference value: 36.8%); type: functional
# HCT-116 [18] = assay: Induction of apoptosis in human HCT116 cells at 2 uM after 48 hrs using annexin V/propidium iodide staining by flow cytometry (reference value: 4.17%); type: functional
Compound,IC50 (HepG2) [µM],IC50 (HCT-116 [1]) [µM],IC50 (A549) [µM],IC50 (HL-60) [µM],IC50 (K562) [µM],IC50 [2] [µM],IC50 (PC-3) [µM],other results
CCc1cccc2c(/C=C3\C(=O)Nc4ncccc43)c[nH]c12,10.5,13.6,17.1,37.4,27.7,42.6,> 50,
Cc1[nH]c(/C=C2\C(=O)Nc3ccncc32)c(C)c1C(=O)N1CCN(C)CC1,> 50,> 50,> 50,> 50,> 50,> 50,> 50,
Cc1[nH]c(/C=C2\C(=O)Nc3cccnc32)c(C)c1C(=O)NCCN(C)C,20.2,12.4,16.7,45.9,24.1,> 50,47,
Cc1[nH]c(/C=C2\C(=O)Nc3ccncc32)c(C)c1C(=O)NCCN(C)C,8.6,9.1,12.5,34.8,15.7,> 50,> 50,IC50 [3]: 0.06 µM; inhibition [4]: Active
Cc1[nH]c(/C=C2\C(=O)Nc3ncccc32)c(C)c1C(=O)N1CCN(CCO)CC1,> 50,> 50,> 50,> 50,> 50,> 50,> 50,
CCN(CC)CCNC(=O)c1c(C)[nH]c(/C=C2\C(=O)Nc3ccncc32)c1C,16.4,11,13.9,35,14.8,> 50,> 50,
CCN(CC)CCNC(=O)c1c(C)[nH]c(/C=C2\C(=O)Nc3ccc(F)cc32)c1C [SUNITINIB],15.4,6.1,18.5,15.5,21.9,> 50,25.1,
O=C1Nc2cccnc2C1=Cc1c[nH]c2cc(F)ccc12 (mixture of isomers),> 50,> 50,> 50,> 50,> 50,> 50,> 50,
CCc1cccc2c(/C=C3\C(=O)Nc4ccc(F)cc43)c[nH]c12,28.1,8.6,11,26.7,15.8,> 50,26.4,IC50 [3]: 6.58 µM; inhibition [4]: Active
O=C1Nc2ccc(F)cc2/C1=C/c1c[nH]c2ccc(F)cc12,> 50,42.1,> 50,> 50,> 50,> 50,> 50,
Cc1[nH]c(/C=C2\C(=O)Nc3ncccc32)c(C)c1C(=O)NCCN(C)C,18.3,9.2,21,48.8,19.8,> 50,49.5,
Cc1[nH]c(/C=C2\C(=O)Nc3ncccc32)c(C)c1C(=O)N1CCN(C)CC1,37.3,35,48.2,40,> 50,> 50,> 50,
CCN(CC)CCNC(=O)c1ccc(/C=C2\C(=O)Nc3ccc(F)cc32)[nH]c1=O.Cl,5,2.3,6.2,22.7,13.8,> 50,21,Activity (HCT-116 [5]): 12.11%; Activity (HCT-116 [6]): 20.48%; Activity (HCT-116 [7]): Dose-dependent effect; IC50 [3]: 0.015 µM; Activity (HCT-116 [8]): 48.67%; Activity (HCT-116 [9]): Dose-dependent effect; Activity (HCT-116 [10]): 45.4%; Activity (HCT-116 [11]): 42.45%; Activity (HCT-116 [12]): 18.27%; Activity (HCT-116 [13]): 8.61%; Activity (HCT-116 [14]): 0.1%; inhibition [4]: Active; Activity (HCT-116 [15]): 38.76%; Activity (HCT-116 [16]): 42.6%; Activity (HCT-116 [17]): 81.63%; Activity (HCT-116 [18]): 28.63%
CN(C)CCNC(=O)c1ccc(/C=C2\C(=O)Nc3ncccc32)[nH]c1=O,27.3,4.3,13.7,34.3,21.3,> 50,26,
O=C1Nc2cccnc2C1=Cc1c[nH]c2ccc(F)cc12 (mixture of isomers),> 50,> 50,> 50,> 50,> 50,> 50,> 50,
Cc1[nH]c(/C=C2\C(=O)Nc3ncccc32)c(C)c1C(=O)NCCN1CCOCC1,> 50,25.5,29.2,27.8,> 50,> 50,> 50,
CN(C)CCNC(=O)c1ccc(/C=C2\C(=O)Nc3ccc(F)cc32)[nH]c1=O,17.1,5.3,12.6,24.7,19.3,> 50,25.2,
O=C1Nc2ccc(F)cc2/C1=C/c1c[nH]c2cc(F)ccc12,> 50,28,> 50,43.1,> 50,> 50,> 50,
O=C1Nc2ccc(F)cc2/C1=C/c1ccc(C(=O)NCCN2CCCCC2)c(=O)[nH]1,18.9,9.5,15.2,32.7,26.8,> 50,28,
O=C1Nc2ncccc2/C1=C/c1c[nH]c2ccc(F)cc12,> 50,17.8,> 50,48,30,> 50,> 50,
O=C1Nc2ccc(F)cc2/C1=C/c1ccc(C(=O)NCCN2CCOCC2)c(=O)[nH]1,35,12.8,22,38.9,45.1,> 50,35.6,
O=C1Nc2ncccc2/C1=C/c1c[nH]c2cc(F)ccc12,15.4,22.3,31.1,34.1,> 50,> 50,> 50,
CCc1cccc2c(C=C3C(=O)Nc4cccnc43)c[nH]c12 (mixture of isomers),> 50,22.3,32.5,34.2,> 50,44.8,> 50,
Cc1[nH]c(/C=C2\C(=O)Nc3ncccc32)c(C)c1C(=O)NCCN1CCCCC1,38.6,18.1,25.4,30.2,18,> 50,25.6,
CCN(CC)CCNC(=O)c1ccc(/C=C2\C(=O)Nc3cccnc32)[nH]c1=O,12.6,8.2,11.8,32.9,25.3,> 50,30.3,
Cc1[nH]c(/C=C2\C(=O)Nc3ccncc32)c(C)c1C(=O)N1CCN(CCO)CC1,> 50,> 50,> 50,> 50,> 50,> 50,> 50,
